Results taken from patent publication US20110039873A1, “SUBSTITUTED PYRAZOLO[1,5-a] PYRIDINE COMPOUNDS HAVING MULTI-TARGET ACTIVITY” (priority 2009, published 2011).

Columns and labels:
Male Wistar rats = test: Morris Maze test; assay type: in vivo, rat
Text: The potential cognitive enhancing properties of the exemplary compound, AV1137, were examined in the Morris Maze test in the rat.
Male Wistar rats were given 4 training sessions over 4 consecutive days. The training session consisted of 4 consecutive trials in the Morris Maze, each separated by 60 seconds. For each trial, the animal was placed in the maze at one of two starting points equidistant from the escape platform and allowed to find the escape platform. The animal was left on the escape platform for 60 seconds before starting a new trial. […] During the 4 trials the animals started the maze twice from each starting point in a randomly determined order per animal.
The trials were video-recorded and the behaviour of animals was analysed using a video-tracking system (Panlab: SMART). The measures taken were the escape latency, the path length and the swim speed at each trial. Scopolamine (0.5 mg/kg i.p.), administered 30 minutes before each session, induces amnesia as indicated by the failure of scopolamine-treated rats to reduce their escape latencies from trial to trial. 12 rats were studied per group. […]
AV1137 was evaluated at 2 and 5 mg/kg, administered twice daily. […]
AV1137 was also administered at the end of each acquisition day (i.e. 6-8 hours after the first administration). […] Data were analyzed by comparing treated groups with appropriate control using unpaired Student's t tests.

[1] = molecular target: T1, catalytic domain of phosphodiesterase 4B enzyme cloned from human brain (Homo sapiens, UniProt Q07343); test: PDE4 inhibition assay (PDELight); assay type: biochemical; conditions: for IC50: 5 uM cAMP, read-out: PDE 4 Inhibition (IC50 in μM)
T1 construct: the catalytic domain of phosphodiesterase 4B enzyme; purchased Scottish Biomedical
How it was run: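 Human PDE4B catalytic domain (40 mU/well) incubated with 5 uM cAMP. AMP formed was converted to ATP and measured by luciferase luminescence (PDELight). IC50 derived by nonlinear regression curve fit.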

[2] = test system: at least one of JNK 3 or JNK 2 and at least one of PDE 10 or PDE 4; test: Dual inhibition (phosphodiesterase and JNK); assay type: biochemical, human; conditions: IC50 JNK 3 or JNK 2 less than about 5.00 μM and PDE 10 or PDE 4 less than about 20.0 or 30.0 μM
How it was run: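 JNK2/JNK3: full-length human enzyme with 3 uM ATF2 and 10 uM ATP for 1 h, ATP depletion by luciferase luminescence. PDE4B catalytic domain with 5 uM cAMP, or PDE10A1 with 1 uM cAMP, 1 h; AMP converted to ATP for luminescence. Compounds 0–30 uM; IC50 by nonlinear regression.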

6-OHDA lesioned rats = test: 6-OHDA (Parkinson's) model, apomorphine induced rotations; assay type: in vivo, rat; conditions: 50 mg/kg PO once daily, after 7 days; control 444, baseline 315
Experimental: AV1173 was evaluated in a 6-OHDA lesioned rats, a standard rat model of Parkinson's disease. (See, e.g., Ungerstedt, U. “6-hydroxydopamine induced degeneration of monoamine neurons.” Eur. J. Pharm. 5: 107-110, 1968; Garvey P M, et al., “Injection of biologically relevant active substances into the brain.” Methods in Neurosciences. 21: 214-234, 1994).
Pre-lesioned rats were purchased from a vendor (Taconic) following stereotaxic injection into the brain of the neurotoxin 6-hydroxydopamine (6-OHDA), which leads to neuronal cell loss in those brain regions affected in PD (in particular the substantia nigra). Briefly, anesthetized rats were injected with […] of 6-OHDA using stereotaxic coordinates to locate the needle within the nigrostatial pathway. A 2 ug/uL solution of 6-OHDA was infused at a rate of 1 ul/min for four minutes. […] On […] post-injection, rats began a once-daily oral regimen of AV1173 (50 mg/kg PO). Rats were assessed for rotational behavior following 0.5 mg/kg apomorphine challenge, one week from the initiation of dosing (Day 17 post-6-OHDA injection).

T1 sequence (Q07343 330-659 limits assumed): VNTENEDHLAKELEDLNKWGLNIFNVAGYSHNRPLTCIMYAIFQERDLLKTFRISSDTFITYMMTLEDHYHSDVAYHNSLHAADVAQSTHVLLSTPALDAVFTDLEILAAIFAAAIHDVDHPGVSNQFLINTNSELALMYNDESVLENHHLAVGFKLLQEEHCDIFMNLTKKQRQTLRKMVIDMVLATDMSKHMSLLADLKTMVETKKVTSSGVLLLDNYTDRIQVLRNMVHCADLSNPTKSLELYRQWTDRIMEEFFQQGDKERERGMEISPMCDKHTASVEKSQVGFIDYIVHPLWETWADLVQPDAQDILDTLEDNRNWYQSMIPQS

| PDE-4 inhibition (in words) [1] | IC50 [1] | dual inhibition (phosphodiesterase and JNK) [2] | SMILES | escape latencies (Male Wistar rats; normal rats (no scopolamine), 5 mg/kg i.p., relative to saline controls, FIG. 5) | escape latency and distance swum (Male Wistar rats; scopolamine-induced deficit, 2 and 5 mg/kg i.p. twice daily, relative to scopolamine treated controls, FIG. 4) | average number of apomorphine induced rotations in 30 minutes (6-OHDA lesioned rats) |
| --- | --- | --- | --- | --- | --- | --- |
| particularly effective | 4.3 µM | effective dual inhibitors | CC(C)Nc1nccc(-c2c(C(C)C)nn3ccccc23)n1 [AV1137, N-isopropyl-4-(2-isopropylpyrazolo[1,5-a]pyridin-3-yl)pyrimidin-2-amine] | trend for reduced escape latencies | trend was seen for decreased escape latency and distance swum |  |
| particularly effective | 5.9 µM | effective dual inhibitors | CC(C)Nc1nccc(-c2cnn3ccccc23)n1 [AV1164, N-isopropyl-4-(pyrazolo[1,5-a]pyridin-3-yl)pyrimidin-2-amine] |  |  |  |
|  | 14 µM | effective dual inhibitors | c1ccn2ncc(-c3ccnc(NC4CCCC4)n3)c2c1 [AV1165, N-cyclopentyl-4-(pyrazolo[1,5-a]pyridin-3-yl)pyrimidin-2-amine] |  |  |  |
| particularly effective | 1.1 µM | effective dual inhibitors | CC(C)Nc1nccc(-c2c(C3CC3)nn3ccccc23)n1 [AV1173, 4-(2-cyclopropylpyrazolo[1,5-a]pyridin-3-yl)-N-isopropylpyrimidin-2-amine] |  |  | 354 |
